According to patent publication US20230270881A1, “ONCOGENIC TRIM37 IS A TARGETABLE EPIGENETIC DRIVER OF METASTASIS AND LINKS CHEMORESISTANCE AND METASTATIC FATE IN TRIPLE-NEGATIVE BREAST CANCER” (University of Virginia Patent Foundation, priority 2020, published 2023):

T1: RAD50 (human, UniProt Q92878 1-1312)
T1 construct: Only co-sedimentation with TRIM37 is reported
T1 sequence (looked up): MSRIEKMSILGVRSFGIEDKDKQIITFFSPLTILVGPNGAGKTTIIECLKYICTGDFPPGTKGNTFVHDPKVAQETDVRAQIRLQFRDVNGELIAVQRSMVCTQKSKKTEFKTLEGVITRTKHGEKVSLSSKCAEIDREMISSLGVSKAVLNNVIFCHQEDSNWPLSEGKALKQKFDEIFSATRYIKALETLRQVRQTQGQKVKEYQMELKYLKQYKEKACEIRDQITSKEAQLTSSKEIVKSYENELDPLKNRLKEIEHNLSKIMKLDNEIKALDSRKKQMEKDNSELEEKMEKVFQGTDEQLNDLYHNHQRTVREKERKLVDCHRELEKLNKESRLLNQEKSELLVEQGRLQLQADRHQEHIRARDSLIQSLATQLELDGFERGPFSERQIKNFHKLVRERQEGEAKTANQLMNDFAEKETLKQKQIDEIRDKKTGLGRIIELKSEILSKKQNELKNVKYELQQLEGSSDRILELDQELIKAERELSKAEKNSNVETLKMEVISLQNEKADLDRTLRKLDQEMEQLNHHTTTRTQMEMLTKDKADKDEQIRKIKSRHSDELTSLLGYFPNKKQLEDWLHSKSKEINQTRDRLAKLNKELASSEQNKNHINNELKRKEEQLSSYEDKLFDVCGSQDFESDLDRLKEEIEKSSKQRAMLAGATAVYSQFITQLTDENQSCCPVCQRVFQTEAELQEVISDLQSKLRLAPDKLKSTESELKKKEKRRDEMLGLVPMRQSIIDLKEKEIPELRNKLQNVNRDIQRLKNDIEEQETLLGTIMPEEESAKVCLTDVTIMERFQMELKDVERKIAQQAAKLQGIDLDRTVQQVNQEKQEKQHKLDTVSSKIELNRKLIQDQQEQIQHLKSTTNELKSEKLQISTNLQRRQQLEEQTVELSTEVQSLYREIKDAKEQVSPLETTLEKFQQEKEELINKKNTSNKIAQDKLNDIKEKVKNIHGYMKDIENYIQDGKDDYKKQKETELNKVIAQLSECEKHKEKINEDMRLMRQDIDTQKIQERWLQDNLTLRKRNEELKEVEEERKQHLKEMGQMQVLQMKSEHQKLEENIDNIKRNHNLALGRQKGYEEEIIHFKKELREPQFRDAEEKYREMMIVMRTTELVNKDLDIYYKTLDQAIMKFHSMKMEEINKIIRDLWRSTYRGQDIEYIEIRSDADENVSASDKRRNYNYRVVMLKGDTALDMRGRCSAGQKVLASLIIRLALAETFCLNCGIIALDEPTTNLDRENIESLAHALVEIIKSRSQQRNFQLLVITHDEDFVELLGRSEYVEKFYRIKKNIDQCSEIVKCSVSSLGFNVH

B1: tripartite motif-containing protein 37 (TRIM37) (enzyme)
chain: MDEQSVESIAEVFRCFICMEKLRDARLCPHCSKLCCFSCIRRWLTEQRAQCPHCRAPLQLRELVNCRWAEEVTQQLDTLQLCSLTKHEENEKDKCENHHEKLSVFCWTCKKCICHQCALWGGMHGGHTFKPLAEIYEQHVTKVNEEVAKLRRRLMELISLVQEVERNVEAVRNAKDERVREIRNAVEMMIARLDTQLKNKLITLMGQKTSLTQETELLESLLQEVEHQLRSCSKSELISKSSEILMMFQQVHRKPMASFVTTPVPPDFTSELVPSYDSATFVLENFSTLRQRADPVYSPPLQVSGLCWRLKVYPDGNGVVRGYYLSVFLELSAGLPETSKYEYRVEMVHQSCNDPTKNIIREFASDFEVGECWGYNRFFRLDLLANEGYLNPQNDTVILRFQVRSPTFFQKSRDQHWYITQLEAAQTSYIQQINNLKERLTIELSRTQKSRDLSPPDNHLSPQNDDALETRAKKSACSDMLLEGGPTTASVREAKEDEEDEEKIQNEDYHHELSDGDLDLDLVYEDEVNQLDGSSSSASSTATSNTEENDIDEETMSGENDVEYNNMELEEGELMEDAAAAGPAGSSHGYVGSSSRISRRTHLCSAATSSLLDIDPLILIHLLDLKDRSSIENLWGLQPRPPASLLQPTASYSRKDKDQRKQQAMWRVPSDLKMLKRLKTQMAEVRCMKTDVKNTLSEIKSSSAASGDMQTSLFSADQAALAACGTENSGRLQDLGMELLAKSSVANCYIRNSTNKKSNSPKPARSSVAGSLSLRRAVDPGENSRSKGDCQTLSEGSPGSSQSGSRHSSPRALIHGSIGDILPKTEDRQCKALDSDAVVVAVFSGLPAVEKRRKMVTLGANAKGGHLEGLQMTDLENNSETGELQPVLPEGASAAPEEGMSSDSDIECDTENEEQEEHTSVGGFHDSFMVMTQPPDEDTHSSFPDGEQIGPEDLSFNTDENSGR
notes: Endogenous TRIM37 in extracts of human TNBC cell lines (MDA MB 468 nuclear extract for co-immunoprecipitation, HCC1806 whole cell extract for sucrose gradient)
B2: MRE11 (other, human, UniProt P49959 2-708, looked up)
chain: STADALDDENTFKILVATDIHLGFMEKDAVRGNDTFVTLDEILRLAQENEVDFILLGGDLFHENKPSRKTLHTCLELLRKYCMGDRPVQFEILSDQSVNFGFSKFPWVNYQDGNLNISIPVFSIHGNHDDPTGADALCALDILSCAGFVNHFGRSMSVEKIDISPVLLQKGSTKIALYGLGSIPDERLYRMFVNKKVTMLRPKEDENSWFNLFVIHQNRSKHGSTNFIPEQFLDDFIDLVIWGHEHECKIAPTKNEQQLFYISQPGSSVVTSLSPGEAVKKHVGLLRIKGRKMNMHKIPLHTVRQFFMEDIVLANHPDIFNPDNPKVTQAIQSFCLEKIEEMLENAERERLGNSHQPEKPLVRLRVDYSGGFEPFSVLRFSQKFVDRVANPKDIIHFFRHREQKEKTGEEINFGKLITKPSEGTTLRVEDLVKQYFQTAEKNVQLSLLTERGMGEAVQEFVDKEEKDAIEELVKYQLEKTQRFLKERHIDALEDKIDEEVRRFRETRQKNTNEEDDEVREAMTRARALRSQSEESASAFSADDLMSIDLAEQMANDSDDSISAATNKGRGRGRGRRGGRGQNSASRGGSQRGRADTGLETSTRSRNSKTAVSASRNMSIIDAFKSTRQQPSRNVTTKNYSEVIEVDESDVEEDIFPTTSKTDQRWSSTSSSKIMSQSQVSKGVDFESSEDDDDDPFMNTSSLRRNRR
notes: Only co-sedimentation with TRIM37 is reported

Assays:
MDA-MB-468 cells = assay: Chemical inhibitor treatment with Dox, qRT-PCR of TRIM37; format: cell-based, human; conditions: in combination with Dox
Method: Quantitative RT-PCR (qRT-PCR). Total RNA was isolated and reverse transcribed using Superscript II Reverse Transcriptase (Invitrogen). Gene expression was normalized to Gapdh. Controls lacking reverse transcriptase were carried out in parallel to rule out the possibility of DNA contamination. Each sample was analyzed at least two independent times and the results from at least three different biological triplicates are presented.
(§1) Chemical inhibitor treatment. MDA-MB-468 cells were treated for 24 hrs with 10 µM Dox and small molecule inhibitors at the following concentrations: 10 µM KU000553 (Cayman Chemical), 50 µM AG490 (Cayman Chemical), and 40 µM HLM006474 (Sigma-Aldrich) for 24 hrs.

TRIM37 [1] = assay: Directed-ChIP assays; format: cell-based, human; conditions: MDA MB 468 cells, in combination with Dox
Method: Directed-ChIP assays. ChIP assays were performed as described previously (Bhatnagar et al., 2014) using cell extracts prepared 1 day after Cas9 transduction or inhibitor treatment, and antibodies against BMI1 (Abcam), H2Aub (Cell Signaling Technology), TRIM37 (Abcam), STAT1 (Cell Signaling Technology), STAT3 (Cell Signaling Technology), E2F1 (Cell Signaling Technology), and as a negative control, IgG. Each ChIP experiment was carried out at least three independent times and the results from at least three biological experiments, with technical duplicates, are shown.
as §1

TRIM37 [2] = assay: Immunoblotting of TRIM37 in treated cells; format: cell-based, human; conditions: TNBC cells
Method: Immunoblotting. Cell extracts were prepared by lysing cell pellet in RIPA buffer supplemented with 1 mM sodium ortho-vanadate and 10 mM PMSF. To prepare protein extract from mouse tissue, it was homogenized in lysis buffer (1% SDS, 1 mM sodium ortho-vanadate, 10 mM Tris pH 7.4 and protease inhibitor). Immunoblots were probed using antibodies against TRIM37 (Abcam), PARP (Cell Signaling Technology), p21 (Cell Signaling Technology), γ-ph-H2AX (Cell Signaling Technology), RAD51C (Invitrogen), ph-ATM (Cell Signaling Technology), ph-STAT1 (Cell Signaling Technology), ph-STAT3 (Cell Signaling Technology), ph-STAT5 (Cell Signaling Technology), BIM (Abcam), FOLR1 (R&D) and α-tubulin (Invitrogen).

RAD50 = biological target: T1, RAD50; assay: sucrose gradient sedimentation of HCC1806 whole cell extract, immunoblot of fractions
Method: (§2) Sucrose gradient fractionation. Sucrose gradient sedimentation analysis was performed as described previously (Bhatnagar et al., 2014). Briefly, 10-40% gradients were formed by layering 200 µl NEB1 buffer containing 10%, 20%, 30% or 40% sucrose in a 13 x 51 mm centrifuge tube (Beckman) and allowed to equilibrate at room temperature for 2 hrs. Gradients were chilled, loaded with […] HCC1806 extract (adjusted to a volume of 200 µl) or 200 µl molecular weight markers (Sigma MW-GF-1000), and centrifuged in a Beckman SW 55 Ti rotor at 214,000 g for 14 hrs. Twenty-five fractions of 200 µl were collected. For the markers, 20 µl of each fraction was electrophoresed and Coomassie stained.

[3] = biological target: B1; assay: as above
Method: as §2

Which results are given for `N#C/C(=C/c1ccc(O)c(O)c1)C(=O)NCc1ccccc1` [AG490]?
TRIM37 upregulation following Dox-treatment (qRT-PCR) (MDA-MB-468 cells): blocks TRIM37 upregulation; Dox-induced STAT1, STAT3, and E2F1 recruitment to TRIM37 (ChIP) (TRIM37 [1]): substantially decreased

Which “TRIM37 upregulation following Dox-treatment (qRT-PCR)” value (MDA-MB-468 cells) does the source give for `CCOc1ccc(C(Nc2ccccn2)c2ccc3ccc(C)nc3c2O)cc1C` (stereo not drawn) [HLM006474] here?
The value was “blocks TRIM37 upregulation”.

What about the “Dox-induced STAT1, STAT3, and E2F1 recruitment to TRIM37 (ChIP)” value (TRIM37 [1]) of the same molecule?
The value was “substantially decreased”.

How did the “TRIM37 upregulation following Dox-treatment (qRT-PCR)” value (MDA-MB-468 cells) turn out when `O=c1cc(-c2cccc3c2Sc2ccccc2S3)oc(N2CCOCC2)c1` [KU000553] was run?
Its value is “blocks TRIM37 upregulation”.

How did the “TRIM37 expression post-treatment relative to DMSO” value (TRIM37 [2]) turn out when `N.N.[Cl][Pt][Cl]` [cisplatin] was run?
The value was “increased TRIM37 expression”.

How did the “TRIM37 expression post-treatment relative to DMSO” value (TRIM37 [2]) turn out when `COc1cccc2c1C(=O)c1c(O)c3c(c(O)c1C2=O)C[C@@](O)(C(C)=O)C[C@@H]3O[C@H]1C[C@H](N)[C@H](O)[C@H](C)O1` [daunorubicin] was run?
The value was “increased TRIM37 expression”.

Does B1 bind (RAD50)?
Result: binds

Does B2 bind [3]?
Result: binds
